Patent US6355799B1, “Substituted benzene compounds, process for their preparation, and herbicidal and defoliant compositions containing them” (ISK Americas Incorporated, priority 1997, dated 2002)

Assays:
Type in all cases: in vivo
[1] = system: field corn (Zea mays L., var. Dekalb 535, CORN); assay: Post-emerge test, crop safety; details: rating scale 0-100 (0 no damage, 100 complete death), 14 days after application
Summary of the method: (§1)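 Compounds in acetone were track-sprayed at 187 l/ha, 15–1000 g ai/ha, onto sandy loam pots. Pre-emerge seeds were sown one day before spraying, with surface watering afterwards. Post-emerge plants were at the 2–3 leaf stage and sprayed with 0.25% v/v non-ionic surfactant. Injury was rated 0–100 at 14 days.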

[2] = system: upland rice (Oryza sp., var. Tebonnet, RICE); assay: Post-emerge test, crop safety; details: rating scale 0-100 (0 no damage, 100 complete death), 14 days after application
Summary of the method: as §1

[3] = system: field corn (Zea mays L., var. Dekalb 535, CORN); assay: Pre-emerge test, crop safety; details: rating scale 0-100, 14 days after application
Summary of the method: (§2)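 Visual ratings on a 0-100 scale (0 no damage, 100 all plants dead) were taken at 14 days after treatment. Rates of 15-1000 g ai/ha in acetone, 187 l/ha, were sprayed onto soil one day after planting (pre-emerge) or onto 2-3 leaf plants with 0.25% v/v surfactant (post-emerge).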

[4] = system: upland rice (Oryza sp., var. Tebonnet, RICE); assay: Pre-emerge test, crop safety; details: rating scale 0-100, 14 days after application
Summary of the method: as §2

[5] = system: redroot pigweed (Amaranthus retroflexus, AMARE); assay: Pre-emerge test, greenhouse herbicide activity screening; details: rating scale 0-100, 14 days after application
Summary of the method: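 Plants grown in 10 cm pots of sandy loam mix received acetone-dissolved compounds through a moving flat-fan nozzle. Doses ranged from 15 to 1000 g ai/ha. Pre-emerge pots were seeded one day earlier, post-emerge pots 8–21 days earlier. Fourteen days on, each pot was graded 0–100 for damage.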

[6] = system: green foxtail (Setaria viridis, SETVI); assay: Post-emerge test, greenhouse herbicide activity screening; details: rating scale 0-100 (0 no damage, 100 complete death), 14 days after application
Summary of the method: (§3)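 Herbicidal damage is scored 0 (none) to 100 (complete plant death) two weeks after a simulated field spray. Rates span 15–1000 g ai/ha, delivered in acetone at 187 l/ha. For post-emergence treatments, plants have 2–3 leaves and the spray carries 0.25% v/v non-ionic surfactant.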

[7] = system: lambsquarters (Chenopodium album, CHEAL); assay: as above; details: rating scale 0-100 (0 no damage, 100 complete death), 14 days after application
Summary of the method: as §3

[8] = system: ivyleaf morningglory (Ipomoea hederacea, IPOHE); assay: as above; details: rating scale 0-100 (0 no damage, 100 complete death), 14 days after application
Summary of the method: as §3

[9] = system: sicklepod (Cassia obtusifolia, CASOB); assay: as above; details: rating scale 0-100 (0 no damage, 100 complete death), 14 days after application
Summary of the method: as §3

[10] = system: johnsongrass (Sorghum halepense, SORHA); assay: as above; details: rating scale 0-100 (0 no damage, 100 complete death), 14 days after application
Summary of the method: as §3

[11] = system: barnyardgrass (Echinochloa crus-galli, ECHCG); assay: as above; details: rating scale 0-100 (0 no damage, 100 complete death), 14 days after application
Summary of the method: as §3

[12] = system: large crabgrass (Digitaria sanguinalis, DIGSA); assay: as above; details: rating scale 0-100 (0 no damage, 100 complete death), 14 days after application
Summary of the method: as §3

[13] = system: redroot pigweed (Amaranthus retroflexus, AMARE); assay: as above; details: rating scale 0-100 (0 no damage, 100 complete death), 14 days after application
Summary of the method: as §3

[14] = system: velvetleaf (Abutilon theophrasti, ABUTH); assay: as above; details: rating scale 0-100 (0 no damage, 100 complete death), 14 days after application
Summary of the method: as §3

[15] = system: green foxtail (Setaria viridis, SETVI); assay: Pre-emerge test, greenhouse herbicide activity screening; details: rating scale 0-100, 14 days after application
Summary of the method: as §1

[16] = system: lambsquarters (Chenopodium album, CHEAL); assay: as above; details: rating scale 0-100, 14 days after application
Summary of the method: as §1

[17] = system: ivyleaf morningglory (Ipomoea hederacea, IPOHE); assay: as above; details: rating scale 0-100, 14 days after application
Summary of the method: as §1

[18] = system: sicklepod (Cassia obtusifolia, CASOB); assay: as above; details: rating scale 0-100, 14 days after application
Summary of the method: as §1

[19] = system: johnsongrass (Sorghum halepense, SORHA); assay: as above; details: rating scale 0-100, 14 days after application
Summary of the method: as §1

[20] = system: barnyardgrass (Echinochloa crus-galli, ECHCG); assay: as above; details: rating scale 0-100, 14 days after application
Summary of the method: as §1

[21] = system: large crabgrass (Digitaria sanguinalis, DIGSA); assay: as above; details: rating scale 0-100, 14 days after application
Summary of the method: as §1

[22] = system: velvetleaf (Abutilon theophrasti, ABUTH); assay: as above; details: rating scale 0-100, 14 days after application
Summary of the method: as §1

CCCCCCOC(=O)C(C)(Cl)Cc1c(OC)c(Cl)cc(F)c1-n1c(=O)cc(C(F)(F)F)n(C)c1=O (centres unmarked) [14-38]
Post-emerge phytotoxicity rating CORN (crop damage) ([1]; Rate 63 g ai/ha): 50 | Post-emerge phytotoxicity rating CORN (crop damage) ([1]; Rate 250 g ai/ha): 100 | Post-emerge phytotoxicity rating RICE (crop damage) ([2]; Rate 63 g ai/ha): 0 | Post-emerge phytotoxicity rating RICE (crop damage) ([2]; Rate 250 g ai/ha): 40 | Pre-emerge phytotoxicity rating, crop damage CORN ([3]; 63 g ai/ha): 0 | Pre-emerge phytotoxicity rating, crop damage CORN ([3]; 250 g ai/ha): 0 | Pre-emerge phytotoxicity rating, crop damage RICE ([4]; 63 g ai/ha): 0 | Pre-emerge phytotoxicity rating, crop damage RICE ([4]; 250 g ai/ha): 30 | Pre-emerge herbicidal activity, phytotoxicity rating AMARE ([5]; 63 g ai/ha): 99 | Pre-emerge herbicidal activity, phytotoxicity rating AMARE ([5]; 250 g ai/ha): 100 | Post-emerge Herbicidal Activity, phytotoxicity rating SETVI ([6]; Rate 63 g ai/ha): 90 | Post-emerge Herbicidal Activity, phytotoxicity rating SETVI ([6]; Rate 250 g ai/ha): 100 | Post-emerge Herbicidal Activity, phytotoxicity rating CHEAL ([7]; Rate 63 g ai/ha): 100 | Post-emerge Herbicidal Activity, phytotoxicity rating CHEAL ([7]; Rate 250 g ai/ha): 100 | Post-emerge Herbicidal Activity, phytotoxicity rating IPOHE ([8]; Rate 63 g ai/ha): 70 | Post-emerge Herbicidal Activity, phytotoxicity rating IPOHE ([8]; Rate 250 g ai/ha): 70 | Post-emerge Herbicidal Activity, phytotoxicity rating CASOB ([9]; Rate 63 g ai/ha): 0 | Post-emerge Herbicidal Activity, phytotoxicity rating CASOB ([9]; Rate 250 g ai/ha): 0 | Post-emerge Herbicidal Activity, phytotoxicity rating SORHA ([10]; Rate 63 g ai/ha): 0 | Post-emerge Herbicidal Activity, phytotoxicity rating SORHA ([10]; Rate 250 g ai/ha): 30 | Post-emerge Herbicidal Activity, phytotoxicity rating ECHCG ([11]; Rate 63 g ai/ha): 100 | Post-emerge Herbicidal Activity, phytotoxicity rating ECHCG ([11]; Rate 250 g ai/ha): 100 | Post-emerge Herbicidal Activity, phytotoxicity rating DIGSA ([12]; Rate 63 g ai/ha): 95 | Post-emerge Herbicidal Activity, phytotoxicity rating DIGSA ([12]; Rate 250 g ai/ha): 100 | Post-emerge Herbicidal Activity, phytotoxicity rating AMARE ([13]; Rate 63 g ai/ha): 100 | Post-emerge Herbicidal Activity, phytotoxicity rating AMARE ([13]; Rate 250 g ai/ha): 100 | Post-emerge Herbicidal Activity, phytotoxicity rating ABUTH ([14]; Rate 63 g ai/ha): 100 | Post-emerge Herbicidal Activity, phytotoxicity rating ABUTH ([14]; Rate 250 g ai/ha): 100 | Pre-emerge herbicidal activity, phytotoxicity rating SETVI ([15]; 63 g ai/ha): 0 | Pre-emerge herbicidal activity, phytotoxicity rating SETVI ([15]; 250 g ai/ha): 80 | Pre-emerge herbicidal activity, phytotoxicity rating CHEAL ([16]; 63 g ai/ha): 90 | Pre-emerge herbicidal activity, phytotoxicity rating CHEAL ([16]; 250 g ai/ha): 100 | Pre-emerge herbicidal activity, phytotoxicity rating IPOHE ([17]; 63 g ai/ha): 0 | Pre-emerge herbicidal activity, phytotoxicity rating IPOHE ([17]; 250 g ai/ha): 0 | Pre-emerge herbicidal activity, phytotoxicity rating CASOB ([18]; 63 g ai/ha): 0 | Pre-emerge herbicidal activity, phytotoxicity rating CASOB ([18]; 250 g ai/ha): 0 | Pre-emerge herbicidal activity, phytotoxicity rating SORHA ([19]; 63 g ai/ha): 0 | Pre-emerge herbicidal activity, phytotoxicity rating SORHA ([19]; 250 g ai/ha): 0 | Pre-emerge herbicidal activity, phytotoxicity rating ECHCG ([20]; 63 g ai/ha): 0 | Pre-emerge herbicidal activity, phytotoxicity rating ECHCG ([20]; 250 g ai/ha): 70 | Pre-emerge herbicidal activity, phytotoxicity rating DIGSA ([21]; 63 g ai/ha): 0 | Pre-emerge herbicidal activity, phytotoxicity rating DIGSA ([21]; 250 g ai/ha): 90 | Pre-emerge herbicidal activity, phytotoxicity rating ABUTH ([22]; 63 g ai/ha): 40 | Pre-emerge herbicidal activity, phytotoxicity rating ABUTH ([22]; 250 g ai/ha): 100
